In BindingDB's records for PubMed 35653695 (Ecole Polytechnique F?d?rale de Lausanne …, 2022):

Experiment: Inhibition of mouse KLK5 assessed as inhibition constant using Boc-VPR-AMC as fluorogenic substrate incubated for 30 mins by fluorescence plate reader assay

## CCCCCCCCCCCCCCCC(=O)NCCCC[C@H](NC(=O)[C@H](CCC(=O)O)NC(=O)[C@H](Cc1ccc(O)cc1)NC(=O)[C@H](CCC(=O)O)NC(=O)COCCOCCNC(=O)c1ccc(-c2c3ccc(=O)cc-3oc3cc(O)ccc23)c(C(=O)O)c1)C(=O)N[C@@H](CCC(=O)O)C(=O)N[C@@H](Cc1ccc(O)cc1)C(=O)N[C@@H](CCC(=O)O)C(=O)NCCOCCOCC(=O)NCCCC[C@H](NC(=O)CNC(=O)[C@@H]1CSCC(=O)CSC[C@H](NC(=O)CN)C(=O)N[C@@H]([C@@H](C)O)C(=O)N[C@@H](CCCNC(=N)N)C(=O)N[C@@H](CCC(N)=O)C(=O)N[C@@H](Cc2ccc(O)cc2)C(=O)N2CCC[C@H]2C(=O)N1)C(=O)NCC(N)=O
  Ki: 1.4 nM
